Data as given in patent US9108944B2, “Androgen receptor modulators and uses thereof” (ARAGON PHARMACEUTICALS, INC., priority 2010, dated 2015).

biological target: T1, AR-VP16 (Homo sapiens, UniProt P10275); test: AR-VP16 DNA Binding Assay, antagonist mode (HepG2 cells, 0.1 nM R1881); format: cell-based
T1 sequence (P10275 560-920 limits assumed): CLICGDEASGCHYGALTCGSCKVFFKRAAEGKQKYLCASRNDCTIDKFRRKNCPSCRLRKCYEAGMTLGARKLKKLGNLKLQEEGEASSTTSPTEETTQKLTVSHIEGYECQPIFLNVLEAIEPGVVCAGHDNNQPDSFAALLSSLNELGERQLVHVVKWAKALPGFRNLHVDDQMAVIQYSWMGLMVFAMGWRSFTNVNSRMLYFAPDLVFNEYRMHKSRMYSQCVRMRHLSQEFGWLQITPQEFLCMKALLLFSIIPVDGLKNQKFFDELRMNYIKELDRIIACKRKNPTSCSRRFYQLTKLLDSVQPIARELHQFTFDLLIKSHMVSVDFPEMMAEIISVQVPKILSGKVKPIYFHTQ
Description: Cells were transiently transfected using Lipofectin (Life Technologies) according to the manufacturer's protocol. […] Transfected cells were incubated overnight then treated with ligand. […] For antagonist assays, the compounds were serially diluted and 50 μL of compound with RPMI supplemented with charcoal stripped serum plus methyltrienolone (R1881) were added to the cells. The final R1881 concentration used in the antagonist assays was 0.1 nM. Following 48 hour incubation the medium was removed and the cells were lysed in 40 μL of lysis buffer (25 mM Tris Phosphate, 2 mM CDTA, 10% Glycerol, 0.5% Triton X-100, 2 mM DTT).

Row | Structure (SMILES) | IC50
1 | N#Cc1ncc(N2C(=O)C3(CCC3)N(c3ccc(OC4CCN(CCO)CC4)cc3)C2=S)cc1C(F)(F)F [Compound 218, 5-(5-(4-((1-(2-hydroxyethyl)piperidin-4-yl)oxy)phenyl)-8-oxo-6-thioxo-5,7-diazaspiro[3.4]octan-7-yl)-3-(trifluoromethyl)picolinonitrile] | < 1000 nM
2 | N#Cc1ncc(N2C(=O)C3(CCC3)N(c3ccc(OCCc4ccccn4)cc3F)C2=S)cc1C(F)(F)F [Compound 183, 5-(5-(2-Fluoro-4-(2-(pyridin-2-yl)ethoxy)phenyl)-8-oxo-6-thioxo-5,7-diazaspiro[3.4]octan-7-yl)-3-(trifluoromethyl)picolinonitrile] | < 1000 nM
3 | Cc1ccc(N2C(=S)N(c3ccc(C#N)c4ncccc34)C(=O)C23CCC3)cc1 [Compound 36, 5-(8-Oxo-6-thioxo-5-(p-tolyl)-5,7-diazaspiro[3.4]octan-7-yl)quinoline-8-carbonitrile] | < 1000 nM
4 | CNC(=O)c1ccc(N2C(=S)N(c3cnc(C#N)c4ccccc34)C(=O)C23CCC3)cc1F [Compound 66, 4-(7-(1-Cyanoisoquinolin-4-yl)-8-oxo-6-thioxo-5,7-diazaspiro[3.4]octan-5-yl)-2-fluoro-N-methylbenzamide] | < 1000 nM
5 | CC(=O)N1CCN(CCOc2ccc(N3C(=S)N(c4cnc(C#N)c(C(F)(F)F)c4)C(=O)C34CCC4)cc2F)CC1 [Compound 202, 5-(5-(4-(2-(4-Acetylpiperazin-1-yl)ethoxy)-3-fluorophenyl)-8-oxo-6-thioxo-5,7-diazaspiro[3.4]octan-7-yl)-3-(trifluoromethyl)picolinonitrile] | < 1000 nM
6 | COCCNC(=O)c1ccc(N2C(=S)N(c3cnc(C#N)c(C(F)(F)F)c3)C(=O)C23CCC3)cc1F [Compound 248, 4-(7-(6-Cyano-5-(trifluoromethyl)pyridin-3-yl)-8-oxo-6-thioxo-5,7-diazaspiro[3.4]octan-5-yl)-2-fluoro-N-(2-methoxyethyl)benzamide] | > 1000 nM
7 | N#Cc1ncc(N2C(=O)C3(CCC3)N(c3ccc(OCc4cccnc4)c(F)c3)C2=S)cc1C(F)(F)F [Compound 148, 5-(5-(3-Fluoro-4-(pyridin-3-ylmethoxy)phenyl)-8-oxo-6-thioxo-5,7-diazaspiro[3.4]octan-7-yl)-3-(trifluoromethyl)picolinonitrile] | < 1000 nM
8 | Cc1cc(N2C(=O)C3(CCC3)N(c3ccc(C(=O)Nc4ccc(F)cc4)c(F)c3)C2=S)cnc1C#N [Compound 299, 4-(7-(6-Cyano-5-methylpyridin-3-yl)-8-oxo-6-thioxo-5,7-diazaspiro[3.4]octan-5-yl)-2-fluoro-N-(4-fluorophenyl)benzamide] | < 1000 nM
9 | N#Cc1ccc(N2C(=S)N(c3cnc(C#N)c(C(F)(F)F)c3)C(=O)C23CCC3)c(F)c1 [Compound 70, 5-(5-(4-Cyano-2-fluorophenyl)-8-oxo-6-thioxo-5,7-diazaspiro[3.4]octan-7-yl)-3-(trifluoromethyl)picolinonitrile] | < 1000 nM
10 | Cc1ccc(N2C(=S)N(c3cc(C#N)n(C)c3)C(=O)C23CCC3)cc1 [Compound 114, 1-Methyl-4-(8-oxo-6-thioxo-5-(p-tolyl)-5,7-diazaspiro[3.4]octan-7-yl)-1H-pyrrole-2-carbonitrile] | > 1000 nM
11 | Cc1ccccc1CCOc1ccc(N2C(=S)N(c3cnc(C#N)c(C(F)(F)F)c3)C(=O)C23CCC3)cc1F [Compound 137, 5-(5-(3-Fluoro-4-(2-methylphenethoxy)phenyl)-8-oxo-6-thioxo-5,7-diazaspiro[3.4]octan-7-yl)-3-(trifluoromethyl)picolinonitrile] | < 1000 nM
12 | CNC(=O)CCCc1ccc(N2C(=S)N(c3cnc(C#N)c(C(F)(F)F)c3)C(=O)C23CCC3)cc1 [Compound 230, 4-(4-(7-(6-Cyano-5-(trifluoromethyl)pyridin-3-yl)-8-oxo-6-thioxo-5,7-diazaspiro[3.4]octan-5-yl)phenyl)-N-methylbutanamide] | < 1000 nM
13 | N#Cc1ncc(N2C(=O)C3(CCC3)N(c3ccc(OCCC(F)(F)C(F)(F)F)c(F)c3)C2=S)cc1C(F)(F)F [Compound 139, 5-(5-(3-Fluoro-4-(3,3,4,4,4-pentafluorobutoxy)phenyl)-8-oxo-6-thioxo-5,7-diazaspiro[3.4]octan-7-yl)-3-(trifluoromethyl)picolinonitrile] | < 1000 nM
14 | N#Cc1ncc(N2C(=O)C3(CCC3)N(c3ccc(OCCCC(F)(F)C(F)(F)F)c(F)c3)C2=S)cc1C(F)(F)F [Compound 134, 5-(5-(3-Fluoro-4-((4,4,5,5,5-pentafluoropentyl)oxy)phenyl)-8-oxo-6-thioxo-5,7-diazaspiro[3.4]octan-7-yl)-3-(trifluoromethyl)picolinonitrile] | < 1000 nM
15 | CNC(=O)c1ccc(N2C(=S)N(c3cnc(C#N)c(C)c3)C(=O)C23CCC3)cc1C(F)(F)F [Compound 109, 4-(7-(6-Cyano-5-methylpyridin-3-yl)-8-oxo-6-thioxo-5,7-diazaspiro[3.4]octan-5-yl)-N-methyl-2-(trifluoromethyl)benzamide] | < 1000 nM
16 | COCCOc1ccc(N2C(=S)N(c3cnc(C#N)c(C(F)(F)F)c3)C(=O)C23CCC3)c(F)c1 [Compound 181, 5-(5-(2-Fluoro-4-(2-methoxyethoxy)phenyl)-8-oxo-6-thioxo-5,7-diazaspiro[3.4]octan-7-yl)-3-(trifluoromethyl)picolinonitrile] | < 1000 nM
17 | N#Cc1ncc(N2C(=O)C3(CCC3)N(c3ccc(-c4ccccc4)cc3)C2=S)cc1C(F)(F)F [Compound 13, 5-(5-([1,1′-Biphenyl]-4-yl)-8-oxo-6-thioxo-5,7-diazaspiro[3.4]octan-7-yl)-3-(trifluoromethyl)picolinonitrile] | < 1000 nM
18 | CN1CCN(CCOc2ccc(N3C(=S)N(c4cnc(C#N)c(C(F)(F)F)c4)C(=O)C34CCC4)c(F)c2)CC1 [Compound 182, 5-(5-(2-Fluoro-4-(2-(4-methylpiperazin-1-yl)ethoxy)phenyl)-8-oxo-6-thioxo-5,7-diazaspiro[3.4]octan-7-yl)-3-(trifluoromethyl)picolinonitrile] | < 1000 nM
19 | CNC(=O)c1ccc(N2C(=S)N(c3ccc(C#N)c4ccccc34)C(=O)C23CCC3)cc1F [Compound 95, 4-(7-(4-Cyanonaphthalen-1-yl)-8-oxo-6-thioxo-5,7-diazaspiro[3.4]octan-5-yl)-2-fluoro-N-methylbenzamide] | < 1000 nM
20 | N#Cc1ncc(N2C(=O)C3(CCC3)N(c3ccc(Br)c(F)c3)C2=S)cc1C(F)(F)F [Compound 4, 5-(5-(4-Bromo-3-fluorophenyl)-8-oxo-6-thioxo-5,7-diazaspiro[3.4]octan-7-yl)-3-(trifluoromethyl)picolinonitrile] | < 1000 nM
21 | CN1CCN(CCCOc2ccc(N3C(=S)N(c4cnc(C#N)c(C(F)(F)F)c4)C(=O)C34CCC4)cc2F)CC1 [Compound 157, 5-(5-(3-Fluoro-4-(3-(4-methylpiperazin-1-yl)propoxy)phenyl)-8-oxo-6-thioxo-5,7-diazaspiro[3.4]octan-7-yl)-3-(trifluoromethyl)picolinonitrile] | < 1000 nM
22 | C#CCNC(=O)c1ccc(N2C(=S)N(c3cnc(C#N)c(C(F)(F)F)c3)C(=O)C23CCC3)cc1F [Compound 281, 4-(7-(6-Cyano-5-(trifluoromethyl)pyridin-3-yl)-8-oxo-6-thioxo-5,7-diazaspiro[3.4]octan-5-yl)-2-fluoro-N-(prop-2-yn-1-yl)benzamide] | < 1000 nM
